Values joined by “and” are separate entries in the source; they are usually repeats but may differ in a detail not shown here. Equal entries are not always repeated. Inconclusive results and toxic doses are left out. Rule as the data show it: active = T/C of 150% or more; inactive = T/C below 125%.
System: L1210 leukemia ip in BDF1 mice, survival T/C
Experiment: NCI In Vivo Anticancer Drug Screen. Data for tumor model L1210 Leukemia (intraperitoneal) in B6D2F1 (BDF1) mice
Settings: higher = longer survival
In short: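 Antitumor effect is assessed in tumor-bearing animals. Survival in the compound arm is compared with a vehicle-dosed control arm and expressed as their quotient.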

Measured: T/C

CN(C)c1nc(N(C)C)nc(N(C)C)n1
inactive: endpoint: mean survival time, dose: 2.5 mg/kg/injection, schedule: Q03HX040 (ip), vehicle: acetone 103 % of control | endpoint: mean survival time, dose: 4.8 mg/kg/injection, schedule: Q01DX Z (ip), vehicle: other 94 % of control | endpoint: mean survival time, dose: 5.0 mg/kg/injection, schedule: Q03HX040 (ip), vehicle: acetone 108 % of control | endpoint: mean survival time, dose: 5.0 mg/kg/injection, schedule: Q06HX020 (ip), vehicle: acetone 110 % of control | endpoint: mean survival time, dose: 5.5 mg/kg/injection, schedule: Q01DX009 (ip), vehicle: saline with Tween-80 104 % of control and 116 % of control | endpoint: mean survival time, dose: 8.5 mg/kg/injection, schedule: Q04DX002 (ip), vehicle: saline with Tween-80 93 % of control and 96 % of control | endpoint: mean survival time, dose: 9.4 mg/kg/injection, schedule: Q01DX009 (ip), vehicle: saline with Tween-80 92 % of control | endpoint: mean survival time, dose: 9.4 mg/kg/injection, schedule: Q01DX010 (ip), vehicle: saline 88 % of control and 92 % of control | endpoint: mean survival time, dose: 9.5 mg/kg/injection, schedule: Q01DX Z (ip), vehicle: other 100 % of control | endpoint: mean survival time, dose: 10.0 mg/kg/injection, schedule: Q03HX040 (ip), vehicle: acetone 106 % of control | endpoint: mean survival time, dose: 10.0 mg/kg/injection, schedule: Q06HX020 (ip), vehicle: acetone 110 % of control | endpoint: mean survival time, dose: 10.0 mg/kg/injection, schedule: Q12HX010 (ip), vehicle: acetone 100 % of control | endpoint: mean survival time, dose: 11.0 mg/kg/injection, schedule: Q01DX009 (ip), vehicle: saline with Tween-80 110 % of control and 118 % of control | endpoint: mean survival time, dose: 12.5 mg/kg/injection, schedule: Q01DX009 (ip), vehicle: saline with Tween-80 108 % of control | endpoint: mean survival time, dose: 17.0 mg/kg/injection, schedule: Q04DX002 (ip), vehicle: saline with Tween-80 100 % of control and 105 % of control | endpoint: mean survival time, dose: 18.8 mg/kg/injection, schedule: Q01DX009 (ip), vehicle: saline with Tween-80 103 % of control | endpoint: mean survival time, dose: 18.8 mg/kg/injection, schedule: Q01DX009 (ip), vehicle: saline 95 % of control and 92 % of control | endpoint: mean survival time, dose: 18.8 mg/kg/injection, schedule: Q01DX010 (ip), vehicle: saline 90 % of control and 91 % of control | endpoint: mean survival time, dose: 19.0 mg/kg/injection, schedule: Q01DX Z (ip), vehicle: other 101 % of control | endpoint: mean survival time, dose: 20.0 mg/kg/injection, schedule: Q01DX005 (ip), vehicle: acetone 101 % of control and 103 % of control | endpoint: mean survival time, dose: 20.0 mg/kg/injection, schedule: Q01DX009 (ip), vehicle: Klucel (hydroxypropylcellulose) (HPC) 99 % of control | endpoint: mean survival time, dose: 20.0 mg/kg/injection, schedule: Q01DX009 (ip), vehicle: saline with Tween-80 100 % of control | endpoint: mean survival time, dose: 20.0 mg/kg/injection, schedule: Q03HX040 (ip), vehicle: acetone 107 % of control | endpoint: mean survival time, dose: 20.0 mg/kg/injection, schedule: Q06HX020 (ip), vehicle: acetone 106 % of control | endpoint: mean survival time, dose: 20.0 mg/kg/injection, schedule: Q12HX010 (ip), vehicle: acetone 104 % of control | endpoint: mean survival time, dose: 25.0 mg/kg/injection, schedule: Q01DX009 (ip), vehicle: saline with Tween-80 98 % of control | endpoint: mean survival time, dose: 30.0 mg/kg/injection, schedule: Q03HX040 (ip), vehicle: saline 110 % of control | endpoint: mean survival time, dose: 34.0 mg/kg/injection, schedule: Q04DX002 (ip), vehicle: saline with Tween-80 100 % of control and 101 % of control | endpoint: mean survival time, dose: 37.5 mg/kg/injection, schedule: Q01DX009 (ip), vehicle: saline with Tween-80 98 % of control | endpoint: mean survival time, dose: 37.5 mg/kg/injection, schedule: Q01DX009 (ip), vehicle: saline 94 % of control and 95 % of control | endpoint: mean survival time, dose: 37.5 mg/kg/injection, schedule: Q01DX010 (ip), vehicle: saline 95 % of control and 91 % of control | endpoint: mean survival time, dose: 38.0 mg/kg/injection, schedule: Q01DX Z (ip), vehicle: other 96 % of control | endpoint: mean survival time, dose: 40.0 mg/kg/injection, schedule: Q01DX005 (ip), vehicle: acetone 100 % of control and 110 % of control | endpoint: mean survival time, dose: 40.0 mg/kg/injection, schedule: Q01DX009 (ip), vehicle: Klucel (hydroxypropylcellulose) (HPC) 101 % of control | endpoint: mean survival time, dose: 40.0 mg/kg/injection, schedule: Q01DX009 (ip), vehicle: saline with Tween-80 101 % of control | endpoint: mean survival time, dose: 40.0 mg/kg/injection, schedule: Q06HX020 (ip), vehicle: acetone 118 % of control | endpoint: mean survival time, dose: 40.0 mg/kg/injection, schedule: Q12HX010 (ip), vehicle: acetone 107 % of control | endpoint: mean survival time, dose: 50.0 mg/kg/injection, schedule: Q01DX001 (ip), vehicle: saline with Tween-80 97 % of control | endpoint: mean survival time, dose: 50.0 mg/kg/injection, schedule: Q01DX009 (ip), vehicle: saline with Tween-80 107 % of control | endpoint: mean survival time, dose: 50.0 mg/kg/injection, schedule: Q12HX010 (ip), vehicle: saline 96 % of control | endpoint: mean survival time, dose: 68.0 mg/kg/injection, schedule: Q04DX002 (ip), vehicle: saline with Tween-80 104 % of control and 105 % of control | endpoint: mean survival time, dose: 75.0 mg/kg/injection, schedule: Q01DX009 (ip), vehicle: saline with Tween-80 111 % of control | endpoint: mean survival time, dose: 75.0 mg/kg/injection, schedule: Q01DX009 (ip), vehicle: saline 94 % of control and 91 % of control | endpoint: mean survival time, dose: 75.0 mg/kg/injection, schedule: Q01DX010 (ip), vehicle: saline 98 % of control and 92 % of control | endpoint: mean survival time, dose: 80.0 mg/kg/injection, schedule: Q01DX005 (ip), vehicle: acetone 104 % of control and 106 % of control | endpoint: mean survival time, dose: 80.0 mg/kg/injection, schedule: Q01DX009 (ip), vehicle: Klucel (hydroxypropylcellulose) (HPC) 100 % of control | endpoint: mean survival time, dose: 80.0 mg/kg/injection, schedule: Q01DX009 (ip), vehicle: saline with Tween-80 105 % of control | endpoint: mean survival time, dose: 80.0 mg/kg/injection, schedule: Q12HX010 (ip), vehicle: acetone 115 % of control | endpoint: mean survival time, dose: 85.0 mg/kg/injection, schedule: Q01DX001 (ip), vehicle: other 94 % of control | endpoint: mean survival time, dose: 100.0 mg/kg/injection, schedule: Q01DX001 (ip), vehicle: saline with Tween-80 98 % of control | endpoint: mean survival time, dose: 100.0 mg/kg/injection, schedule: Q01DX009 (ip), vehicle: saline with Tween-80 97 % of control | endpoint: mean survival time, dose: 100.0 mg/kg/injection, schedule: Q12HX010 (ip), vehicle: saline 98 % of control | endpoint: mean survival time, dose: 125.0 mg/kg/injection, schedule: Q01DX001 (ip), vehicle: other 109 % of control | endpoint: mean survival time, dose: 130.0 mg/kg/injection, schedule: Q01DX001 (ip), vehicle: other 101 % of control | endpoint: mean survival time, dose: 136.0 mg/kg/injection, schedule: Q04DX002 (ip), vehicle: saline with Tween-80 96 % of control and 98 % of control | endpoint: mean survival time, dose: 150.0 mg/kg/injection, schedule: Q01DX009 (ip), vehicle: saline with Tween-80 124 % of control | endpoint: mean survival time, dose: 150.0 mg/kg/injection, schedule: Q01DX009 (ip), vehicle: saline 93 % of control and 102 % of control | endpoint: mean survival time, dose: 160.0 mg/kg/injection, schedule: Q01DX009 (ip), vehicle: Klucel (hydroxypropylcellulose) (HPC) 107 % of control and 87 % of control | endpoint: mean survival time, dose: 160.0 mg/kg/injection, schedule: Q01DX009 (ip), vehicle: saline with Tween-80 109 % of control | endpoint: mean survival time, dose: 195.0 mg/kg/injection, schedule: Q01DX001 (ip), vehicle: other 94 % of control | endpoint: mean survival time, dose: 200.0 mg/kg/injection, schedule: Q01DX001 (ip), vehicle: saline with Tween-80 101 % of control | endpoint: mean survival time, dose: 200.0 mg/kg/injection, schedule: Q01DX009 (ip), vehicle: saline with Tween-80 124 % of control | endpoint: mean survival time, dose: 240.0 mg/kg/injection, schedule: Q01DX009 (ip), vehicle: Klucel (hydroxypropylcellulose) (HPC) 86 % of control | endpoint: mean survival time, dose: 250.0 mg/kg/injection, schedule: Q01DX001 (ip), vehicle: other 100 % of control | endpoint: mean survival time, dose: 272.0 mg/kg/injection, schedule: Q04DX002 (ip), vehicle: saline with Tween-80 100 % of control and 105 % of control | endpoint: mean survival time, dose: 400.0 mg/kg/injection, schedule: Q01DX001 (ip), vehicle: saline with Tween-80 98 % of control | endpoint: mean survival time, dose: 500.0 mg/kg/injection, schedule: Q01DX001 (ip), vehicle: other 112 % of control | endpoint: median survival time, dose: 18.8 mg/kg/injection, schedule: Q01DX009 (ip), vehicle: saline 100 % of control and 114 % of control | endpoint: median survival time, dose: 37.5 mg/kg/injection, schedule: Q01DX009 (ip), vehicle: saline 100 % of control and 114 % of control | endpoint: median survival time, dose: 75.0 mg/kg/injection, schedule: Q01DX009 (ip), vehicle: saline 100 % of control and 111 % of control | endpoint: median survival time, dose: 150.0 mg/kg/injection, schedule: Q01DX009 (ip), vehicle: saline 111 % of control and 121 % of control

C/C=C\C=N\NC(N)=S
inactive: endpoint: mean survival time, dose: 12.5 mg/kg/injection, schedule: Q04DX003 (ip), vehicle: saline with Tween-80 95 % of control | endpoint: mean survival time, dose: 25.0 mg/kg/injection, schedule: Q04DX003 (ip), vehicle: saline with Tween-80 103 % of control | endpoint: mean survival time, dose: 50.0 mg/kg/injection, schedule: Q04DX003 (ip), vehicle: saline with Tween-80 95 % of control

CCOP(=O)(Nc1cccc(Cl)c1)OCC
inactive: endpoint: mean survival time, dose: 50.0 mg/kg/injection, schedule: Q01DX001 (ip), vehicle: carboxymethylcellulose (CMC) 94 % of control | endpoint: mean survival time, dose: 100.0 mg/kg/injection, schedule: Q01DX001 (ip), vehicle: carboxymethylcellulose (CMC) 94 % of control | endpoint: mean survival time, dose: 200.0 mg/kg/injection, schedule: Q01DX001 (ip), vehicle: carboxymethylcellulose (CMC) 105 % of control | endpoint: mean survival time, dose: 400.0 mg/kg/injection, schedule: Q01DX001 (ip), vehicle: carboxymethylcellulose (CMC) 103 % of control

CNC(=S)NNC(=O)c1ccncc1
inactive: endpoint: mean survival time, dose: 100.0 mg/kg/injection, schedule: Q04DX002 (ip), vehicle: saline with Tween-80 100 % of control | endpoint: mean survival time, dose: 200.0 mg/kg/injection, schedule: Q04DX002 (ip), vehicle: saline with Tween-80 100 % of control | endpoint: mean survival time, dose: 400.0 mg/kg/injection, schedule: Q04DX002 (ip), vehicle: saline with Tween-80 100 % of control
